Key:
Assay type in all cases: biochemical
Conditions in all cases: substrate MOCAc-Pro-Leu-Gly-Leu-A2Pr(DNP)-Ala-Arg-NH2
MMP-1 = target: T1, MMP-1 (Homo sapiens, UniProt P03956); assay: Assay for inhibitory activities on MMPs (fluorogenic peptide substrate): MMP-1
T1 construct: purchased Yagai
T1 sequence (P03956 100-469): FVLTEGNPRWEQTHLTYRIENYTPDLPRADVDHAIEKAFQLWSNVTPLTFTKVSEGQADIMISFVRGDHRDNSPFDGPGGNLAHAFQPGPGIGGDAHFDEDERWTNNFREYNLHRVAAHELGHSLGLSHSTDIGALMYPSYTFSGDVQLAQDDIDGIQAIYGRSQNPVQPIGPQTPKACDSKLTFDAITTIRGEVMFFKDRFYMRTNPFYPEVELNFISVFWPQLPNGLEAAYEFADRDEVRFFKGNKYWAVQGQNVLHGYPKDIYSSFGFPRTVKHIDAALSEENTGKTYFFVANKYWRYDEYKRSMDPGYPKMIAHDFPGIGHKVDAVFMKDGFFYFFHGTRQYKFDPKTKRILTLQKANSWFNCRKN
Description: MMP-1 was purchased from Yagai.
(§1) The enzymatic activity on MMPs was analyzed by the method described in “C. Graham Knight, Frances Willenbrock and Gillian Murphy: A novel coumarin-labelled peptide for sensitive continuous assays of the matrix metalloproteinases: FEBS LETT., 296, (1992), 263-266”. The substrate: MOCAc-Pro-Leu-Gly-Leu-A2Pr(DNP)-Ala-Arg-NH2 was purchased from Peptide Institute, Inc., Osaka, Japan. The measurement of the inhibitory activities (IC50) was carried out by the following four methods;
(§2) (A) Reaction with substrate, enzyme (MMPs) and inhibitor
(§3) (B) Reaction with substrate and inhibitor, without enzyme
(§4) (C) Reaction with substrate and enzyme (MMPs), without inhibitor
(§5) (D) Reaction with substrate only
(§6) IC50 values were calculated by using the following formula and each fluorescence values of above four methods (A to D).
(§7) % inhibition={1−(A−B)/(C−D)}×100
(§8) IC50 means the concentration required to inhibit 50% of the enzyme activity.

MMP-2 = target: T2, MMP-2 (Homo sapiens, UniProt P08253); assay: Assay for inhibitory activities on MMPs (fluorogenic peptide substrate): MMP-2
T2 construct: purchased Calbiochem-Novabiochem International, Inc
T2 sequence (P08253 110-660): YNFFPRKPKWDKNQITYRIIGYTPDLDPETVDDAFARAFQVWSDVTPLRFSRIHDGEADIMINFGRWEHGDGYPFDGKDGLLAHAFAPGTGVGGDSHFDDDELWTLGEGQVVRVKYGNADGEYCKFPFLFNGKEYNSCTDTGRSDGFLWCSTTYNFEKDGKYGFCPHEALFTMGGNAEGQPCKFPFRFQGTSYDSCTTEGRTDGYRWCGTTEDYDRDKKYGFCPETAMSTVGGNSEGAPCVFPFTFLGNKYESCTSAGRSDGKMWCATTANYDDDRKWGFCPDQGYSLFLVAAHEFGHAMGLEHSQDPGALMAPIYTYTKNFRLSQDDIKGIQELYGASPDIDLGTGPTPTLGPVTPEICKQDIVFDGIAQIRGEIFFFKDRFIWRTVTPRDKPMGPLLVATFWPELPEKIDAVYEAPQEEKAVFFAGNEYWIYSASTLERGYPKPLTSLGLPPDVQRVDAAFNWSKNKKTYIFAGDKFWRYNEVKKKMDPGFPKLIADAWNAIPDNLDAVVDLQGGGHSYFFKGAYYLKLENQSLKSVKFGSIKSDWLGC
Description: MMP-2 was purchased from Calbiochem-Novabiochem International, Inc.
as §1, §2, §3, §4, §5, §6, §7, §8

MMP-8 catalytic domain = target: T3, MMP-8 catalytic domain (Homo sapiens, UniProt P22894); assay: Assay for inhibitory activities on MMPs (fluorogenic peptide substrate): MMP-8
T3 construct: catalytic domain (^99Phe˜^262Gly); His-tag; enterokinase digestion-site; made in house; host or cells: Escherichia coli
T3 sequence (P22894 99-262): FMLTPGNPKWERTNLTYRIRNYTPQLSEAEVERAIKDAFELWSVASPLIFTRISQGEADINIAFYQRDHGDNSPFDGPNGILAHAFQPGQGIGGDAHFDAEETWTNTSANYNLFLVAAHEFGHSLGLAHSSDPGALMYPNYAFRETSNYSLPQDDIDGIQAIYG
From the text: In regard to MMP-8, catalytic domain (^99Phe˜^262Gly) was amplified with PCR using commercial available Human Bone Marrow cDNA. This was cloned in Escherichia. coli expression vector pTrc99AHE inserted with His-tag sequence and enterokinase digestion-site, induced and expressed by IPTG (Isopropyl-β-D-thiogalactopyranoside) and expressed in a insoluble fraction (Than F. Ho, M. Walid Qoronfleh, Robert C. Wahl, Trica A. Pulvino, Karen J. Vavra, Joe Falvo, Tracey M. Banks, Patricia G. Brake and Richard B. Ciccarelli: Gene expression, purification and characterization of recombinant human neutrophil collagenase. Gene 146, (1994) 297-301, Prepared by the a improved method of this material). Isolation of MMP-8 from insoluble fraction was carried out by dissolving in modifier (6M urea) by a usual method and purification with metal chelate chromatography. And then removing modifier (6M urea) with dialysis and refolding of the enzyme spontaneously gave activated MMP-8.
as §1, §2, §3, §4, §5, §6, §7, §8

MMP-9 = target: T4, MMP-9 (Homo sapiens, UniProt P14780); assay: Assay for inhibitory activities on MMPs (fluorogenic peptide substrate): MMP-9
T4 construct: endogenous in cells; host or cells: HT1080 human fibrosarcoma cells, TPA-stimulated; purified in house from conditioned medium
T4 sequence (P14780 107-707 limits assumed): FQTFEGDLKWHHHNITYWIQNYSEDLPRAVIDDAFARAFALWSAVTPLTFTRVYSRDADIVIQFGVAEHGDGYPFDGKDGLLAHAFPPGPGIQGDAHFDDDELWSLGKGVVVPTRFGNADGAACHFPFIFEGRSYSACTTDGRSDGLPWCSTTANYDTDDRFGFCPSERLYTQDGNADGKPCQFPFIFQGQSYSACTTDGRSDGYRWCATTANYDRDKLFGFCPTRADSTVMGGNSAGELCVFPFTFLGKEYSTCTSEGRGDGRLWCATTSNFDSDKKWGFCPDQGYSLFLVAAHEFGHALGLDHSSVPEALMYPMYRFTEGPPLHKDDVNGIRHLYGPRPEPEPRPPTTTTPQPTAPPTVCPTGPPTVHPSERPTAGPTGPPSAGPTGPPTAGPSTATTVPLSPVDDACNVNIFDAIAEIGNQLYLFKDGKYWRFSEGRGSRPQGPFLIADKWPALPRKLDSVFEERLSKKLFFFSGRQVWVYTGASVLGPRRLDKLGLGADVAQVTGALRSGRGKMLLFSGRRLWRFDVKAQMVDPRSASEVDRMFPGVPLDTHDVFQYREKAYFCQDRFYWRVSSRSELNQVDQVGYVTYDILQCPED
From the text: MMP-9 was isolated and purified by using a combination of procedures described in previous reports as follows. Yasunori Okada, Yukio Gonoji, Katsumi Naka, Katsuro Tomita, Isao Nakanishi, Kazushi Iwata, Kyoko Yamashita, and Taro Hayakawa: Matrix metalloproteinase 9 (92-kDa gelatinase/type IV collagenase) from HT1080 human fibrosarcoma cells. Purification and activation of the precursor and enzymic properties. J. Biol. Chem., 267 (1.992) 21712-21719. Yasunori Okada, Tatsuhisa Morodomi, Jan J, Enghild, Ko Suzuki, Atsushi Yasui, Isao Nakanishi, Guy Salvesen and Hideaki Nagase: Matrix metalloproteinase 2 from human rheumatoid synovial fibroblasts. Purification and activation of the precursor and enzymic properties. Eur. J. Biochem. 194 (1990) 721-730. Robin V Ward, Rosalind M Hembry, John J Reynolds and Gillian Murphy: The purification of tissue inhibitor of metalloproteinase-2 from its 72 kDa progelatinase complex. Biochem. J. 278 (1991) 179-187.
Briefly, human fibrosarcoma ATCC HT1080 cell line was cultured to confluent in Dulbecco's Modified Medium (DMEM) containing 10% fetal-calf serum at 37° C. for 48 hours. Subsequently, the medium of confluent culture was changed to serum-free DMEM medium. To obtain MMP-9, Phorbol-12-myristate-13-acetate (TPA) must be added to this serum-free DMEM medium at a concentration of 50 ng/ml. The TPA treated medium was centrifuged at 3000 rpm for 15 min and the supernatant was concentrated to 450 ml by a Toyo-Roshi UP-20 apparatus with an ultrafiltration membrane. Then, proMMP-9 in this concentrated solution was purified by using columns of Gelatin-Sepharose and Concanavalin A-Sepharose. The pool containing proMMP-9 was dialyzed, concentrated (Toyo-Roshi UP-20) and applied to columns of Sephacryl S-200 and Green A matrix for the separation from TIMPs. The obtained proMMP-9 fraction was activated by TPCK-Trypsin (final conc. […] reaction mix.).
as §1, §2, §3, §4, §5, §6, §7, §8

MMP-12 catalytic domain = target: T5, MMP-12 catalytic domain (Homo sapiens, UniProt P39900); assay: Assay for inhibitory activities on MMPs (fluorogenic peptide substrate): MMP-12
T5 construct: catalytic domain(^100Phe˜^263Gly); His-tag; enterokinase digestion-site; made in house; host or cells: Escherichia coli
T5 sequence (P39900 100-263): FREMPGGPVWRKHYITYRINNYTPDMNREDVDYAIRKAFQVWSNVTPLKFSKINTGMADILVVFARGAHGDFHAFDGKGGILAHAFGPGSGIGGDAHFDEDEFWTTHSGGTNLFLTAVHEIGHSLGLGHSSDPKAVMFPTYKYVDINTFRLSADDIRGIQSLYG
Description: (§9) In regard to MMP-12, catalytic domain(^100Phe˜^263Gly) was amplified with RT-PCR from Human Placenta Total RNA. This was cloned in Escherichia coli expression vector pTrc99AHE inserted with His-tag sequence and enterokinase digestion-site, induced and expressed by IPTG (Isopropyl-β-D-thiogalactopyranoside) and expressed in a insoluble fraction. Isolation of MMP-12 from a insoluble fraction was carried out by dissolving in modifier (6M urea) by a usual method and purification with metal chelate chromatography (Ni Chelateing Sepharose). And then removing modifier (6M urea) with dialysis and refolding of the enzyme spontaneously gave activated MMP-12.
as §1, §2, §3, §4, §5, §6, §7, §8

MMP-13 catalytic domain = target: T6, MMP-13 catalytic domain (Homo sapiens, UniProt P45452); assay: Assay for inhibitory activities on MMPs (fluorogenic peptide substrate): MMP-13
T6 construct: catalytic domain (^104Tyr˜^267Gly); His-tag; enterokinase digestion-site; made in house; host or cells: Escherichia coli
Description: as §9, with “MMP-13, mRNA was prepared from carcinoma cell SW1353 derived from human cartilage stimulate by IL-1, TNF and” for “MMP-12,”, “domain (^104Tyr˜^267Gly)” for “domain(^100Phe˜^263Gly)”, “RT-PCR.” for “RT-PCR from Human Placenta Total RNA.”, “MMP-1.3” for “MMP-12”, “dialyze” for “dialysis”, “MMP-13.” for “MMP-12.”
as §1, §2, §3, §4, §5, §6, §7, §8

Row | SMILES | IC50 (MMP-1) | IC50 (MMP-2) | IC50 (MMP-8 catalytic domain) | IC50 (MMP-9) | IC50 (MMP-12 catalytic domain) | IC50 (MMP-13 catalytic domain)
1 | O=C(O)[C@@H](Cc1ccccc1)NS(=O)(=O)c1ccc(C#Cc2ccc3ccccc3c2)cc1 [Compound A-2] | > 10000 nM | > 10000 nM | > 10000 nM | > 10000 nM | 16 nM | > 10000 nM
2 | O=C(O)[C@H](Cc1ccccc1)NS(=O)(=O)c1ccc(C#Cc2ccc3ccccc3c2)cc1 [Compound A-3] | > 10000 nM | > 10000 nM | > 10000 nM | > 10000 nM | 21 nM | > 10000 nM
3 | CC(C)[C@@H](NS(=O)(=O)c1ccc(C#Cc2ccc3ccccc3c2)cc1)C(=O)O [Compound A-5] | > 10000 nM | 110 nM | 1060 nM | 330 nM | 14 nM | 340 nM
4 | CC(C)[C@H](NS(=O)(=O)c1ccc(C#Cc2ccc3ccccc3c2)cc1)C(=O)O [Compound A-6] | > 10000 nM | – | – | – | – | –
5 | C[C@H](NS(=O)(=O)c1ccc(C#Cc2ccc3ccccc3c2)cc1)C(=O)O [Compound A-8] | > 10000 nM | 570 nM | 2440 nM | 3280 nM | 16 nM | 2770 nM
6 | O=C(O)CNS(=O)(=O)c1ccc(C#Cc2ccc3ccccc3c2)cc1 [Compound A-9] | > 10000 nM | 250 nM | > 10000 nM | 1800 nM | 69 nM | 2880 nM
7 | CC(C)C[C@@H](NS(=O)(=O)c1ccc(C#Cc2ccc3ccccc3c2)cc1)C(=O)O [Compound A-10] | > 10000 nM | 370 nM | 4380 nM | 1440 nM | 58 nM | 1550 nM
8 | CC(C)C[C@H](NS(=O)(=O)c1ccc(C#Cc2ccc3ccccc3c2)cc1)C(=O)O [Compound A-11] | > 10000 nM | 370 nM | 580 nM | 1270 nM | 5.9 nM | 460 nM
9 | O=C(O)[C@H](NS(=O)(=O)c1ccc(C#Cc2ccc3ccccc3c2)cc1)c1ccc(O)cc1 [Compound A-12] | > 10000 nM | 370 nM | 3630 nM | 1790 nM | 35 nM | 1140 nM
10 | O=C(O)[C@H](Cc1c[nH]c2ccccc12)NS(=O)(=O)c1ccc(C#Cc2ccc3ccccc3c2)cc1 [Compound A-15] | > 10000 nM | 460 nM | > 10000 nM | 900 nM | 32 nM | 890 nM
11 | O=C(O)[C@H](Cc1ccccc1)NS(=O)(=O)c1ccc(C#Cc2ccc3c(c2)OCO3)cc1 [Compound A-22] | > 10000 nM | 13 nM | 10 nM | 300 nM | 7.9 nM | 37 nM
12 | O=C(O)[C@@H](Cc1ccccc1)NS(=O)(=O)c1ccc(C#Cc2ccc3ccccc3c2)s1 [Compound B-1] | > 10000 nM | 820 nM | > 10000 nM | > 10000 nM | 42 nM | > 10000 nM
13 | O=C(O)[C@H](Cc1ccccc1)NS(=O)(=O)c1ccc(C#Cc2ccc3ccccc3c2)s1 [Compound B-2] | > 10000 nM | > 10000 nM | > 10000 nM | > 10000 nM | 240 nM | > 10000 nM
14 | O=C(O)[C@@H](Cc1c[nH]c2ccccc12)NS(=O)(=O)c1ccc(C#Cc2ccc3ccccc3c2)s1 [Compound B-3] | > 10000 nM | – | 1400 nM | 750 nM | 16 nM | > 10000 nM
15 | CC(C)[C@@H](NS(=O)(=O)c1ccc(C#Cc2ccc3ccccc3c2)s1)C(=O)O [Compound B-4] | > 10000 nM | 240 nM | 540 nM | 530 nM | 11 nM | 640 nM
16 | CC(C)[C@H](NS(=O)(=O)c1ccc(C#Cc2ccc3ccccc3c2)s1)C(=O)O [Compound B-5] | > 10000 nM | 2230 nM | 2340 nM | 3270 nM | 82 nM | 6900 nM
17 | C[C@H](NS(=O)(=O)c1ccc(C#Cc2ccc3ccccc3c2)s1)C(=O)O [Compound B-7] | > 10000 nM | 2030 nM | 7790 nM | 6310 nM | 160 nM | > 10000 nM
18 | O=C(O)[C@H](NS(=O)(=O)c1ccc(C#Cc2ccc3ccccc3c2)s1)c1ccc(O)cc1 [Compound B-8] | > 10000 nM | 1120 nM | 2650 nM | 2110 nM | 48 nM | 2300 nM

— patent US6897237B2, “MMP-12 inhibitors” (Shionogi & Co. Ltd., priority 2000, dated 2005)
